Measurements reported in publication PMC3005334 (Cell, 2010).

How the values were obtained:
[1] = biological target: T1, Erg3 (Saccharomyces cerevisiae, UniProt P32353); assay type: binding; details: in vivo bound, LC-MS; known substrate
T1 sequence (P32353 1-365): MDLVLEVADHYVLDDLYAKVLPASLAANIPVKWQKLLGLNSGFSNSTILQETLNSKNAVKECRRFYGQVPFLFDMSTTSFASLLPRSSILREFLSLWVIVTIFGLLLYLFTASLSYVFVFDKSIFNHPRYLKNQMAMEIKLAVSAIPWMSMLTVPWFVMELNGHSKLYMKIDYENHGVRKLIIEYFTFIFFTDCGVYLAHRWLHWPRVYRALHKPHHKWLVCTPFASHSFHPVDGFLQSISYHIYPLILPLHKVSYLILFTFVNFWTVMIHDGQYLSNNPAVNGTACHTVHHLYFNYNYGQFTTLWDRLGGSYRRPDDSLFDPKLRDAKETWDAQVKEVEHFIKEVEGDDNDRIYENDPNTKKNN

[2] = tested on: 21 ergosterol biosynthetic proteins (Erg proteins); details: of 21 Erg enzymes, above the control
[3] = biological target: T2, Erg1 (Saccharomyces cerevisiae, UniProt P32476); assay type: binding; details: in vivo bound, LC-MS
T2 sequence (P32476 1-496): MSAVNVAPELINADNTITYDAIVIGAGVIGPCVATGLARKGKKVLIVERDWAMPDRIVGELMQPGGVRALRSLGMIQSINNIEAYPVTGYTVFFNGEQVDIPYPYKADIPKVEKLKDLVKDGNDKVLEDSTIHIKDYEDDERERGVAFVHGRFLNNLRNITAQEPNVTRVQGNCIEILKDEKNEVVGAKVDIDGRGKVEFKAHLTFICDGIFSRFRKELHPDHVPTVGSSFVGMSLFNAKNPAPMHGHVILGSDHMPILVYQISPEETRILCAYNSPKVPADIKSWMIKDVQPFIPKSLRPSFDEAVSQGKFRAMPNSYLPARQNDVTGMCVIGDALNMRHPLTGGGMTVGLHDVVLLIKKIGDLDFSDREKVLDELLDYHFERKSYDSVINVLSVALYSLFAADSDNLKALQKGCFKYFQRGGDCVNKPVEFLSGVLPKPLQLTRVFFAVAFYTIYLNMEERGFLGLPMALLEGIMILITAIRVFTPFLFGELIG

[4] = tested on: ypk1Δ cells; details: ref Gupta et al., 2003; Hillenmeyer et al., 2008; cited from earlier work
[5] = tested on: ypk1Δ cells; assay: Growth of kinase deletion strain in the presence of ergosterol inhibitor; assay type: cell-based, Saccharomyces cerevisiae; details: different concentrations of inhibitor, cell density

SMILES	number of Erg proteins the metabolite co-purified with [2]	association with Erg1 among the 21 Erg proteins [3]	other results
C=C(CC[C@@H](C)[C@H]1CC[C@H]2C3=CC[C@H]4C[C@@H](O)CC[C@]4(C)[C@H]3CC[C@]12C)C(C)C [episterol]	3	–	binding to Erg3 [1]: bound
CC(C)=CCC[C@@H](C)[C@H]1CC[C@H]2C3=C(CC[C@]12C)[C@@]1(C)CCC(=O)C[C@@H]1CC3 [5α-cholesta-8,24-dien-3-one]	–	specifically associated only with Erg1	–
C[C@@H]1[C@H](O)[C@@H](C)/C=C/C=C/CC/C=C/C=C/C=C/C=C/C(O[C@H]2O[C@H](C)[C@@H](O)[C@H](N)[C@@H]2O)CC2O[C@](O)(CC(O)C(O)CCC(O)CC(O)CC(O)CC(=O)O[C@H]1C)CC(O)C2C(=O)O (stereo partly shown) [nystatin]	–	–	sensitivity of yeast strains lacking Ypk1 [4]: sensitive; growth of ypk1Δ cells [5]: sensitive
CC(C)=CCC/C(C)=C/CC/C(C)=C/CC/C=C(\C)CC/C=C(\C)CC[C@@H]1OC1(C)C [(S)-2,3-epoxysqualene]	–	specifically associated only with Erg1	–
CC(C)=CCC[C@@H](C)[C@H]1CC[C@@]2(C)C3=C(CC[C@]12C)[C@@]1(C)CC[C@H](O)C(C)(C)[C@@H]1CC3 [lanosterol]	5	–	–
